Results from patent US20130289070A1, “Use of Levocabastine for Modulating Generation of Pro-Inflammatory Cytokines” (Bausch & Lomb Incorporated, priority 2007, published 2013).

System: EoL-1 (human eosinophilic leukaemia cell line) cells
Assay: TNF-α-induced cytokine release, non-differentiated EoL-1 cells (NO PMA) (Luminex)
Type: cell-based
Set-up: key to Fractalkine (NO PMA), p of decrement / IL-1α (NO PMA), p of decrement / IL-1β (NO PMA), p of decrement / IL-1ra (NO PMA), p of decrement / IL-5 (NO PMA), p of decrement / IL-7 (NO PMA), p of decrement / IL-8 (NO PMA), p of decrement / IP-10 (NO PMA), p of decrement / MCP-1 (NO PMA), p of decrement / MIP-1β (NO PMA), p of decrement / VEGF (NO PMA), p of decrement: ns = non significant
Experimental: EoL-1 (human eosinophilic leukaemia cell line) cells (Saito et al., 1985; Mayumi, 1992) were maintained in RPMI-1640 medium with L-glutamine supplemented with 10% (v/v) FBS at 37° C. in a humidified atmosphere with 5% CO2. Where indicated, 24 h before the experiment 25 ng/mL PMA ((phorbol 12-myristate 13-acetate, purchased from Sigma Aldrich) was added to the medium to induce eosinophil granulation and differentiation (Ohtsu et al., 1993; Zimmermann et al., 2000).
Half-million cells were aliquoted per point in a 24 well plate; each experiment was performed in triplicate and carried out in parallel with eosinophils differentiated and non differentiated with PMA (25 ng/mL, 24 h). Cells were suspended in low serum medium (RPMI-1640, 0.1% (v/v) FBS). TNF-α was used to induce cytokine secretion as previously described by Steube et al. (2000), and the net release was obtained by comparison to the basal (non-TNF-α treated). In the first experiment we evaluated the concentration and time relation between TNF-α stimulation and cytokine release. Therefore, 5, 10, and 25 ng/mL of TNF-α was administered to the cells at 0, ½, 1, 2, 3, 6, 12 and 24 h (data not shown). An aliquot of 150 μL of supernate was collected for cytokines' analysis. […] Differentiated and non-differentiated EoL-1 cells were exposed from 0.1 to 2.3 mM levocabastine ([…]Levocabastine 0.05% solution eye drops containing cyclodextrins, without benzalkonium chloride), and aliquots of the supernates were collected after 12 and 24 h. The content of cytokines at time zero was estimated by treating the cells with 400 nM calcimycin (A-23187), which is a cytolytic agent that frees all the mediators from the cytoplasmic compartment. In addition, for each experiment we tested the effect of the vehicle, which was added to the wells in a concentration equal to the maximum amount used for drug dilution.
Samples (supernates 12 and 24 h) in triplicate were analyzed using Luminex 200™ (Luminex, Austin, Tex.) and Beadview software v1.0 (Upstate Cell Signaling Solutions, Temecula, Calif.).
All data are presented as mean±SEM for the indicated number of experiments. Statistical significance was determined by Newman-Keuls test after ANOVA using GraphPad Prism (version 3.0; GraphPad Software Inc., San Diego, Calif., USA). P-values<0.05 were considered to be significant.

[1] = 24 h, VCAM-1 + Levocabastine 2 mM vs VCAM-1
[2] = non-differentiated EoL-1 cells, in the presence of VCAM-1 or fibronectin

C[C@@H]1CN([C@H]2CC[C@](C#N)(c3ccc(F)cc3)CC2)CC[C@]1(C(=O)O)c1ccccc1 [Levocabastine, levocabastine]
IP-10 (NO PMA), p of decrement (24 h, TNF-α vs Lev 0.1 mM): p < 0.05 | MCP-1 (NO PMA), p of decrement (24 h, TNF-α vs Lev 0.1 mM): ns | MIP-1β (NO PMA), p of decrement (24 h, TNF-α vs Lev 0.1 mM): ns | VEGF (NO PMA), p of decrement (24 h, TNF-α vs Lev 0.1 mM): ns | Fractalkine (NO PMA), p of decrement (24 h, TNF-α vs Lev 0.5 mM): ns | IL-1ra (NO PMA), p of decrement (24 h, TNF-α vs Lev 0.5 mM): ns | IL-1α (NO PMA), p of decrement (24 h, TNF-α vs Lev 0.5 mM): ns | IL-1β (NO PMA), p of decrement (24 h, TNF-α vs Lev 0.5 mM): ns | IL-5 (NO PMA), p of decrement (24 h, TNF-α vs Lev 0.5 mM): ns | IL-7 (NO PMA), p of decrement (24 h, TNF-α vs Lev 0.5 mM): ns | IL-8 (NO PMA), p of decrement (24 h, TNF-α vs Lev 0.5 mM): ns | IP-10 (NO PMA), p of decrement (24 h, TNF-α vs Lev 0.5 mM): p < 0.05 | MCP-1 (NO PMA), p of decrement (24 h, TNF-α vs Lev 0.5 mM): ns | MIP-1β (NO PMA), p of decrement (24 h, TNF-α vs Lev 0.5 mM): ns | VEGF (NO PMA), p of decrement (24 h, TNF-α vs Lev 0.5 mM): ns | Fractalkine (NO PMA), p of decrement (24 h, TNF-α vs Lev 1.0 mM): ns | IL-1ra (NO PMA), p of decrement (24 h, TNF-α vs Lev 1.0 mM): ns | IL-1α (NO PMA), p of decrement (24 h, TNF-α vs Lev 1.0 mM): ns | IL-1β (NO PMA), p of decrement (24 h, TNF-α vs Lev 1.0 mM): ns | IL-5 (NO PMA), p of decrement (24 h, TNF-α vs Lev 1.0 mM): ns | IL-7 (NO PMA), p of decrement (24 h, TNF-α vs Lev 1.0 mM): ns | IL-8 (NO PMA), p of decrement (24 h, TNF-α vs Lev 1.0 mM): ns | IP-10 (NO PMA), p of decrement (24 h, TNF-α vs Lev 1.0 mM): ns | MCP-1 (NO PMA), p of decrement (24 h, TNF-α vs Lev 1.0 mM): ns | MIP-1β (NO PMA), p of decrement (24 h, TNF-α vs Lev 1.0 mM): ns | VEGF (NO PMA), p of decrement (24 h, TNF-α vs Lev 1.0 mM): ns | Fractalkine (NO PMA), p of decrement (24 h, TNF-α vs Lev 2.3 mM): ns | IL-1ra (NO PMA), p of decrement (24 h, TNF-α vs Lev 2.3 mM): ns | IL-1α (NO PMA), p of decrement (24 h, TNF-α vs Lev 2.3 mM): ns | IL-1β (NO PMA), p of decrement (24 h, TNF-α vs Lev 2.3 mM): ns | IL-5 (NO PMA), p of decrement (24 h, TNF-α vs Lev 2.3 mM): ns | IL-7 (NO PMA), p of decrement (24 h, TNF-α vs Lev 2.3 mM): ns | IL-8 (NO PMA), p of decrement (24 h, TNF-α vs Lev 2.3 mM): ns | IP-10 (NO PMA), p of decrement (24 h, TNF-α vs Lev 2.3 mM): ns | MCP-1 (NO PMA), p of decrement (24 h, TNF-α vs Lev 2.3 mM): ns | MIP-1β (NO PMA), p of decrement (24 h, TNF-α vs Lev 2.3 mM): ns | VEGF (NO PMA), p of decrement (24 h, TNF-α vs Lev 2.3 mM): p < 0.01 | MIP-1α (NO PMA), p of increase (24 h, TNF-α vs Lev 0.1-2.3 mM): concentration dependent way p < 0.001 | RANTES (NO PMA), p of increase (24 h, TNF-α vs Lev 0.1-2.3 mM): concentration dependent way p < 0.001 | Fractalkine (NO PMA), p of decrement [1]: ns | G-CSF (NO PMA), p of decrement [1]: ns | GM-CSF (NO PMA), p of decrement [1]: ns | IL-1ra (NO PMA), p of decrement [1]: P < 0.01 | IL-1α (NO PMA), p of decrement [1]: ns | IL-1β (NO PMA), p of decrement [1]: ns | IL-5 (NO PMA), p of decrement [1]: ns | IL-6 (NO PMA), p of decrement [1]: P < 0.001 | IL-7 (NO PMA), p of decrement [1]: ns | IL-8 (NO PMA), p of decrement [1]: P < 0.001 | IL-10 (NO PMA), p of decrement [1]: ns | IL-12p40 (NO PMA), p of decrement [1]: ns | IP-10 (NO PMA), p of decrement [1]: ns | MCP-1 (NO PMA), p of decrement [1]: ns | MIP-1α (NO PMA), p of decrement [1]: Increase | MIP-1β (NO PMA), p of decrement [1]: ns | RANTES (NO PMA), p of decrement [1]: Increase | TGF-α (NO PMA), p of decrement [1]: ns | VEGF (NO PMA), p of decrement [1]: P < 0.001 | release of VEGF (FIG. 4 Panel B) (Naïve EoL-1 cells challenged with TNF-α, levocabastine with cyclodextrin pre-treatment): reduced release | IL-6 release (FIG. 13) [2]: inhibited | release, cytokine not named (FIG. 12) [2]: inhibited
